Measurements: paper PMC9947563, “Identification of the molecular determinants of antagonist potency in the allosteric binding pocket of human P2X4” (Frontiers in Pharmacology, 2023)
Residue numbers refer to the chain shown, from its start. Like-named read-outs stand apart in the source and are kept apart here. Each block holds one compound with its values, some of them ahead of it.

Legend:
hP2X4 = settings: read-out: hP2X4 IC50, cited from earlier work
[1] = molecular target: T1, human P2X4 wild type (h4-WT) (Homo sapiens, UniProt Q99571); experiment: ATP-induced calcium influx (Fluo-4) in 1321N1 cells stably expressing human P2X4 wild type; format: cell-based; settings: 1321N1 cells, human P2X4 WT
T1 construct: expressed in transfected cells; host or cells: 1321N1 astrocytoma cells, stably transfected
T1 sequence (Q99571 1-388): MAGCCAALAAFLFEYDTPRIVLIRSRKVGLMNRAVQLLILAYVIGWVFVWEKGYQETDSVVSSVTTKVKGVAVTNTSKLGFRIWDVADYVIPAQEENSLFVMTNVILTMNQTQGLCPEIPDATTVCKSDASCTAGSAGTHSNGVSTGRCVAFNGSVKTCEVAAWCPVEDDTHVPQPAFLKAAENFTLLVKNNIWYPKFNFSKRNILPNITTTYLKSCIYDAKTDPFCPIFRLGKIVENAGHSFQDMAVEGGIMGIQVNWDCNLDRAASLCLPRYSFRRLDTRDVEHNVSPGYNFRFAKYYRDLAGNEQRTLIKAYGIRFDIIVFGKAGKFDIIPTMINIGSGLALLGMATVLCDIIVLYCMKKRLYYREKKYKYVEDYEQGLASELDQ
Protocol: (§1) 1321N1 astrocytoma cells were cultured (at 37°C, 5% CO2) in Dulbecco’s modified Eagle’s medium (DMEM/F-12 with Glutamax) supplemented with 10% foetal bovine serum (FBS) and 200 unit/mL of penicillin and streptomycin antibiotics (Fisher Scientific). Stably transfected clones were grown in DMEM/F-12 with Glutamax medium supplemented with G-418 (Geneticin®, Fisher Scientific), 600 μg/mL and 150 μg/mL during selection and maintenance, respectively. […] Each cell line was then tested for P2X4 receptor expression by Western blot and for functionality using the Ca^2+ influx assay.
(§2) Cells were plated the day before assay into poly-lysine-coated 96-well plates at 40–55,000 cells/mL. […] Prior to assay, buffer was replaced with fresh modified Ringer’s buffer containing probenecid but not the dye. […] A Fluoroskan Ascent FL plate reader (Fisher Scientific) equipped with a solution dispenser and an appropriate filter pair (excitation: 485 nm, emission: 538 nm) was used to record 5-s baseline followed by P2X4-mediated calcium influx measurements for 20–25 s after ATP stimulation (final concentration ranging between 0.03 and 100 μM in buffered solution, pH = 7.4). The collected responses were normalized to the first data-point recorded after ATP injection.
(§3) Data processing and data analysis were carried out using Graphpad Prism version 6 for Mac. Figures are presented as Mean ± SEM. […] When comparing data obtained from multiple independent experiments (N), each dataset was normalized to the mean value obtained for the vehicle control.

[2] = molecular target: T2, rat P2X4 wild type (r4-WT) (Rattus norvegicus, UniProt P51577); experiment: ATP-induced calcium influx (Fluo-4) in 1321N1 cells stably expressing rat P2X4 wild type; format: cell-based; settings: 1321N1 cells, rat P2X4 WT
T2 construct: expressed in transfected cells; host or cells: 1321N1 astrocytoma cells, stably transfected
T2 sequence (P51577 1-388): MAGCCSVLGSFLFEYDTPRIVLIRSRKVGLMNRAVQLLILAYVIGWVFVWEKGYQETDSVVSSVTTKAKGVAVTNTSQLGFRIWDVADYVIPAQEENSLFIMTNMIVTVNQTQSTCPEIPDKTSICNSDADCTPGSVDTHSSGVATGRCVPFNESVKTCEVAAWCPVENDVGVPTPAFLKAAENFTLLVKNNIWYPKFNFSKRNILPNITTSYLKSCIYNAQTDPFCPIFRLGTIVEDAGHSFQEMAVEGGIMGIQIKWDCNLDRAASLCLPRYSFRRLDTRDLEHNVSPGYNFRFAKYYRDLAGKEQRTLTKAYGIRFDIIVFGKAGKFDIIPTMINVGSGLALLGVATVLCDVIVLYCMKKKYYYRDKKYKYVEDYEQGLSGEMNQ
Protocol: (§4) 1321N1 astrocytoma cells were cultured (at 37°C, 5% CO2) in Dulbecco’s modified Eagle’s medium (DMEM/F-12 with Glutamax) supplemented with 10% foetal bovine serum (FBS) and 200 unit/mL of penicillin and streptomycin antibiotics (Fisher Scientific). Stably transfected clones were grown in DMEM/F-12 with Glutamax medium supplemented with G-418 (Geneticin®, Fisher Scientific), 600 μg/mL and 150 μg/mL during selection and maintenance, respectively. FuGene HD Transfection Reagent (Promega) was used according to the manufacturer’s protocol for the generation of stable cell line expressing h4-WT, r4-WT, h4-I312T, and r4-T312I. Each cell line was then tested for P2X4 receptor expression by Western blot and for functionality using the Ca^2+ influx assay.
(§5) Cells were plated the day before assay into poly-lysine-coated 96-well plates at 40–55,000 cells/mL. To load cells with calcium-sensitive fluorescent dye, culture medium was replaced with modified Ringer’s buffer (140 mM NaCl, 10 mM HEPES, 10 mM Glucose, 1 mM MgCl2, 1 mM CaCl2, 2.5 mM KCl, 0.5% BSA, pH = 7.4) containing 2.6 μM FLUO4-AM (Fisher Scientific) and 250 μM probenecid (Sigma), and cells were incubated for 20–30 min. Prior to assay, buffer was replaced with fresh modified Ringer’s buffer containing probenecid but not the dye. […] A Fluoroskan Ascent FL plate reader (Fisher Scientific) equipped with a solution dispenser and an appropriate filter pair (excitation: 485 nm, emission: 538 nm) was used to record 5-s baseline followed by P2X4-mediated calcium influx measurements for 20–25 s after ATP stimulation (final concentration ranging between 0.03 and 100 μM in buffered solution, pH = 7.4). The collected responses were normalized to the first data-point recorded after ATP injection.
(§6) Data processing and data analysis were carried out using Graphpad Prism version 6 for Mac. Figures are presented as Mean ± SEM. Statistical significance of any difference observed between samples was calculated through one-way ANOVA followed by Dunnett’s multiple comparisons test with a single pooled variance (control, unless otherwise specified) or, when comparing only two sets of data, using an unpaired t-test with Welch’s correction. When comparing data obtained from multiple independent experiments (N), each dataset was normalized to the mean value obtained for the vehicle control.

[3] = molecular target: T3, human P2X4 I312T (h4-I312T) (Homo sapiens, UniProt Q99571, I312T); experiment: ATP-induced calcium influx (Fluo-4) in 1321N1 cells stably expressing human P2X4 I312T; format: cell-based; settings: 1321N1 cells, human P2X4 I312T
T3 construct: expressed in transfected cells; host or cells: 1321N1 astrocytoma cells, stably transfected
T3 sequence (Q99571 1-388 I312T): T1 sequence (Q99571 1-388) with I312T
Protocol: Plasmid encoding rat P2X4 (r4-WT) ([Royle et al., 2005]) was a kind gift from Ruth Murrell-Lagnado, whilst that encoding human P2X4 with a C-terminal (His)10 tag has been reported previously ([Young et al., 2008]).
as §1, §2, §3

[4] = molecular target: T4, rat P2X4 T312I (r4-T312I) (Rattus norvegicus, UniProt P51577, T312I); experiment: ATP-induced calcium influx (Fluo-4) in 1321N1 cells stably expressing rat P2X4 T312I; format: cell-based; settings: 1321N1 cells, rat P2X4 T312I
T4 construct: expressed in transfected cells; host or cells: 1321N1 astrocytoma cells, stably transfected
T4 sequence (P51577 1-388 T312I): T2 sequence (P51577 1-388) with T312I
Text: Plasmid encoding rat P2X4 (r4-WT) ([Royle et al., 2005]) was a kind gift from Ruth Murrell-Lagnado, whilst that encoding human P2X4 with a C-terminal (His)10 tag has been reported previously ([Young et al., 2008]). Plasmids containing rat P2X4 T312I (r4-T312I) and human P2X4 I312T mutants (h4-I312T) were generated using the QuikChange Lightning site-directed mutagenesis kit (Agilent) according to manufacturer’s instructions. Sequencing of the constructs and of the genomic DNA from stably transfected cells confirmed correct full coding sequences.
as §4, §5, §6

rP2X4 = settings: cited from earlier work
mP2X4 = settings: cited from earlier work
human P2X4 open channel = system: human P2X4 open channel; parameters: method as in Bidula et al. (2022); settings: ref Bidula et al. (2022); cited from earlier work
injury-induced allodynia = system: injury-induced allodynia; parameters: method as in Matsumura et al., 2016; Ushioda et al., 2020; settings: ref Matsumura et al., 2016; Ushioda et al., 2020; cited from earlier work
P2X4 = system: P2X4; parameters: method as in Hernandez-Olmos et al., 2012; settings: ref Hernandez-Olmos et al., 2012; cited from earlier work
[5] = ref Hernandez-Olmos et al., 2012; cited from earlier work
[6] = approximate value for the series, ref Matsumura et al., 2016, Ushioda et al., 2020, read-out: IC50 at mouse P2X4
[7] = ref Hernandez-Olmost et al. (2012)

Compound: Cc1c(-c2cccc(-c3nnn[nH]3)c2)c2[nH]c3ccccc3c2[nH]c1=O [Sunovion-A]
IC50 (hP2X4; ref Newcom and Spear (2013)): < 100 nM

Compound: CC(C)c1ccc(NC(=S)NC(=O)C23CC4CC(CC(C4)C2)C3)c(Br)c1 [Mahmood-4n]
IC50 (hP2X4; ref Mahmood et al. (2022a)): 40 nM

ATP pEC50 (± SEM) [1]: 5.901 (± 0.0577)
EC50 [1]: 1260 nM
Hill coefficient (ATP concentration-response) [1]: 1.098
ATP pEC50 (± SEM) [2]: 5.770 (± 0.0507)
EC50 [2]: 1700 nM
Hill coefficient (ATP concentration-response) [2]: 1.441
ATP pEC50 (± SEM) [3]: 6.112 (± 0.028)
EC50 [3]: 770 nM
Hill coefficient (ATP concentration-response) [3]: 2.057
ATP pEC50 (± SEM) [4]: 6.136 (± 0.0645)
EC50 [4]: 730 nM
Hill coefficient (ATP concentration-response) [4]: 2.475
Compound: Nc1ncnc2c1ncn2[C@@H]1O[C@H](COP(=O)(O)OP(=O)(O)OP(=O)(O)O)[C@@H](O)[C@H]1O [ATP]

Compound: O=C(NC(=S)Nc1c(Br)ccc(C(F)(F)F)c1Br)c1ccc2c(c1)OCO2 [Mahmood-9g]
IC50 (hP2X4; ref Mahmood et al. (2022b)): 55 nM

Compound: O=C1CN=C(c2cccc(Br)c2)c2oc3ccccc3c2N1 [5-BDBD]
IC50 (rP2X4; ref Abdelrahman et al. (2017)): 3470 nM
IC50 (rP2X4; ref Coddou et al. (2019)): 750 nM
IC50 (mP2X4; ref Abdelrahman et al. (2017), read-out: mP2X4 IC50): 2040 nM
capability of blocking the open channel (human P2X4 open channel): not

Compound: O=C1CC(=O)N(c2ccc(NC(=O)c3ccccc3I)cc2)c2ccc3ccccc3c2N1 [NP-B]
IC50 (hP2X4; ref Matsumura et al., 2016, Ushioda et al., 2020): 430 nM
IC50 (mP2X4; [6]): ~250 nM
effect in in vivo rodent model of injury-induced allodynia (injury-induced allodynia): anti-allodynic effect

Compound: Cc1ccc(S(=O)(=O)N2c3ccccc3Oc3ccccc32)cc1 [PSB-12062]
potency as P2X4 antagonist (in words) (P2X4): low micromolar range

Compound: CC(C)c1ccc(NC(=S)NC(=O)c2ccc3c(c2)OCO3)c(Br)c1 [Mahmood-9o]
IC50 (hP2X4; ref Mahmood et al. (2022b)): 39 nM

Compound: O=C1CC(=O)N(c2cccc(-c3noc(=S)[nH]3)c2)c2ccc3ccccc3c2N1 [NP-1815-PX]
IC50 (mP2X4; [6]): ~250 nM
effect in in vivo rodent model of injury-induced allodynia (injury-induced allodynia): anti-allodynic effect

Compound: O=C(OCc1ccccc1)N1c2ccccc2Oc2ccccc21 [PSB-12054]
IC50 (hP2X4; [7]): 190 nM
IC50 (rP2X4; [7]): 2100 nM
IC50 (mP2X4; ref Hernandez-Olmost et al. (2012), read-out: mP2X4 IC50): 1800 nM
potency as P2X4 antagonist (in words) (P2X4): low micromolar range
solubility (in words) [5]: partial solubility

Compound: O=C(C1CC1)N1CCc2cc(Br)c(S(=O)(=O)Nc3ccc(Cl)c(C(F)(F)F)c3)cc21 [Indophagolin]
IC50 (hP2X4; ref Carnero Corrales et al. (2021)): 140 nM

Compound: NS(=O)(=O)c1cc(NC(=O)Cc2ccccc2)ccc1Oc1cccc(Cl)c1 [BAY-1797, N-[4-(3-Chlorophenoxy)-3-sulfamoylphenyl]-2-phenylacetamide]
IC50 (rP2X4; ref Werner et al. (2019)): 100 nM
IC50 (mP2X4; ref Werner et al. (2019), read-out: mP2X4 IC50): 200 nM

Compound: O=C1CC(=O)N(c2ccc(NS(=O)(=O)Cc3ccccc3Cl)cc2)c2ccc3ccccc3c2N1 [NP-A]
IC50 (mP2X4; [6]): ~250 nM
effect in in vivo rodent model of injury-induced allodynia (injury-induced allodynia): anti-allodynic effect
